Key:
thrombin [1] = target: T1, thrombin (Homo sapiens, UniProt P00734); details: reversible and irreversible inhibitors of thrombin; cited from earlier work
thrombin [2] = target: T1, thrombin; assay: thrombin time determination; format: biochemical
Procedure: The activity of the product as a thrombin inhibitor is measured by determination of the thrombin time essentially as described in European Patent Application 293 881, page 51. Using a 1 micromolar concentration of inhibitor, a mean thrombin time of 114 seconds is found, compared with 16 seconds in the absence of inhibitor.

Compound | inhibition in vitro (thrombin [1]) | thrombin inhibitor (in words) (thrombin [2]) | mean thrombin time (thrombin [2]; 1 micromolar concentration of inhibitor, 16 seconds in the absence of inhibitor)
NC(N)=NCCC[C@H](NC(=O)[C@@H]1CCCN1C(=O)[C@H](N)Cc1ccccc1)C(=O)CCl [D-Phe-Pro-Arg-CH2 Cl] | ~10^-8 M | – | –
N=C(N)NCCC[C@@H](C=O)NC(=O)[C@@H]1CCCN1C(=O)[C@H](N)Cc1ccccc1 [D-Phe-Pro-Arginal] | ~10^-8 M | – | –
Z-D-Phe-Pro-BOMe-OPin [formula XII] | – | strong thrombin inhibitor | 114 s

Reference: patent US6313096A, “Inhibitors of trypsin-like enzymes” (Trigen Limited, priority 2000, dated 2001)
